Data published in patent publication US20090311237A1, “Combination therapy using a soluble hyaluronidase and a bisphosphonate” (priority 2008, published 2009).
Like-named read-outs stand apart in the source and are kept apart here.

Experiment: Phase 1 Stage 1 clinical pharmacokinetics of SC ZA co-administered with rHuPH20
Type: in vivo, human
Details: human, serum, sc; for MRT: read-out: MRT; for Tmax: read-out: Tmax; for AUC(0-inf): read-out: AUC (0-∞); for AUC(0-t): ZA […] SC
Description: A pharmacokinetic study of zoledronic acid (ZA) co-administered with rHuPH20 in human subjects was conducted. The primary objective of the study was to determine the bioavailability of zoledronic acid dosed via subcutaneous (SC) co-administration with human recombinant hyaluronidase PH20 (rHuPH20). […] The patients were administered the prescribed dosage formulations as follows: Cohorts 1-5 were administered a single subcutaneous infusion in a dosage volume of 100 ml at a rate of 3 mL/min. […] The dosing solution is administered via needle or catheter into the SC space of the left anterior thigh (midway between the anterior iliac crest and the cephalad border of the patella). For cohorts 1-5, the dosing solutions were administered by a controlled rate infusion pump at approximately 3 mL/minute. […] The dosing solutions were administered by syringe push bolus injection. […] Serum concentration of ZA was determined using a qualified LC-MS-MS assay after derivatization with diazomethane (Zhu, L S et al. (2006) Rapid Commun. […] The assay range was from 2.0 to 400 ng/mL with a lower limit of quantitation (LLOQ) at 2.0 ng/mL. […] Non-compartmental analysis was used for derivation of primary and secondary pharmacokinetic (PK) parameters. […] Summary statistics (mean, standard deviation, and median) were calculated using JMP or Microsoft Excel.

[1] = ZA 1 mg SC + 24000 U rHuPH20, individual subjects
[2] = ZA 1 mg SC + 24000 U rHuPH20, mean, n=3
[3] = ZA 1 mg SC + 24000 U rHuPH20, median, n=3
[4] = ZA 2 mg SC + 24000 U rHuPH20, individual subjects
[5] = ZA 2 mg SC + 24000 U rHuPH20, mean, n=3
[6] = ZA 2 mg SC + 24000 U rHuPH20, median, n=3
[7] = ZA 5 mg SC + 24000 U rHuPH20, individual subjects
[8] = ZA 5 mg SC + 24000 U rHuPH20, mean, n=3
[9] = ZA 5 mg SC + 24000 U rHuPH20, median, n=3

## O=P(O)(O)C(O)(Cn1ccnc1)P(=O)(O)O [ZA, 1-hydroxy-2-(1H-imidazol-1-yl)ethylidene-1,1-bisphosphonic acid]
[1]
  MRT: 6.93 h
  Tmax: 1.31 h
ZA 1 mg SC + 24000 U rHuPH20, individual subjects, read-out: Vss/F
  Vd/F: 0.988 L/kg
ZA 1 mg SC + 24000 U rHuPH20, individual subjects, read-out: Vz/F
  Vd/F: 2.65 L/kg
[2]
  CL/F: 2.15 mL/min/kg
  Cmax: 29.5 ng/mL
  AUC(0-inf): 134 ng·h/mL
  MRT: 6.61 h
  Tmax: 1.03 h
ZA 1 mg SC + 24000 U rHuPH20, mean, n=3, read-out: Vss/F
  Vd/F: 0.852 L/kg
ZA 1 mg SC + 24000 U rHuPH20, mean, n=3, read-out: Vz/F
  Vd/F: 2.13 L/kg
[3]
  CL/F: 2.38 mL/min/kg
  Cmax: 30.1 ng/mL
  AUC(0-inf): 122 ng·h/mL
  MRT: 6.66 h
  Tmax: 1.06 h
ZA 1 mg SC + 24000 U rHuPH20, median, n=3, read-out: Vss/F
  Vd/F: 0.988 L/kg
ZA 1 mg SC + 24000 U rHuPH20, median, n=3, read-out: Vz/F
  Vd/F: 2.05 L/kg
[4]
  CL/F: 2.25 mL/min/kg
  Cmax: 62.8 ng/mL
  AUC(0-inf): 246 ng·h/mL
  MRT: 5.72 h
  Tmax: 1.31 h
ZA 2 mg SC + 24000 U rHuPH20, individual subjects, read-out: Vss/F
  Vd/F: 0.774 L/kg
ZA 2 mg SC + 24000 U rHuPH20, individual subjects, read-out: Vz/F
  Vd/F: 2.48 L/kg
[5]
  CL/F: 2.11 mL/min/kg
  Cmax: 58.2 ng/mL
  AUC(0-inf): 262 ng·h/mL
  MRT: 7.5 h
  Tmax: 1.48 h
ZA 2 mg SC + 24000 U rHuPH20, mean, n=3, read-out: Vss/F
  Vd/F: 0.941 L/kg
ZA 2 mg SC + 24000 U rHuPH20, mean, n=3, read-out: Vz/F
  Vd/F: 2.87 L/kg
[6]
  CL/F: 2.06 mL/min/kg
  Cmax: 58.7 ng/mL
  AUC(0-inf): 246 ng·h/mL
  MRT: 6.19 h
  Tmax: 1.56 h
ZA 2 mg SC + 24000 U rHuPH20, median, n=3, read-out: Vss/F
  Vd/F: 0.774 L/kg
ZA 2 mg SC + 24000 U rHuPH20, median, n=3, read-out: Vz/F
  Vd/F: 2.48 L/kg
[7]
  CL/F: 2.11 mL/min/kg
  Cmax: 131 ng/mL
  AUC(0-inf): 620 ng·h/mL
  MRT: 10.9 h
  Tmax: 0.81 h
ZA 5 mg SC + 24000 U rHuPH20, individual subjects, read-out: Vss/F
  Vd/F: 1.39 L/kg
ZA 5 mg SC + 24000 U rHuPH20, individual subjects, read-out: Vz/F
  Vd/F: 4.27 L/kg
[8]
  CL/F: 1.85 mL/min/kg
  Cmax: 132 ng/mL
  AUC(0-inf): 662 ng·h/mL
  MRT: 12.5 h
  Tmax: 0.98 h
ZA 5 mg SC + 24000 U rHuPH20, mean, n=3, read-out: Vss/F
  Vd/F: 1.38 L/kg
ZA 5 mg SC + 24000 U rHuPH20, mean, n=3, read-out: Vz/F
  Vd/F: 3.92 L/kg
[9]
  CL/F: 1.85 mL/min/kg
  Cmax: 131 ng/mL
  AUC(0-inf): 637 ng·h/mL
  MRT: 12.7 h
  Tmax: 0.81 h
ZA 5 mg SC + 24000 U rHuPH20, median, n=3, read-out: Vss/F
  Vd/F: 1.39 L/kg
ZA 5 mg SC + 24000 U rHuPH20, median, n=3, read-out: Vz/F
  Vd/F: 3.91 L/kg
AUC (0-12 h), Subj 1, inf 0.554 hr, PH20 23928 U
  AUC(0-t): 29.2 ng·h/mL
AUC (0-12 h), Subj 8, inf 0.531 hr, PH20 22944 U
  AUC(0-t): 28.8 ng·h/mL
AUC (0-12 h), Subj 11, inf 0.554 hr, PH20 23928 U
  AUC(0-t): 29.4 ng·h/mL
AUC (0-12 h), Subj 16, inf 0.553 hr, PH20 23904 U
  AUC(0-t): 60.8 ng·h/mL
AUC (0-12 h), Subj 18, inf […], PH20 23304 U
  AUC(0-t): 66.2 ng·h/mL
AUC (0-12 h), Subj 21, inf 0.556 hr, PH20 24000 U
  AUC(0-t): 62.4 ng·h/mL
AUC (0-12 h), Subj 25, inf 0.549 hr, PH20 23736 U
  AUC(0-t): 103 ng·h/mL
AUC (0-12 h), Subj 26, inf […], PH20 23088 U
  AUC(0-t): 137 ng·h/mL
AUC (0-12 h), Subj 31, inf 0.554 hr, PH20 23952 U
  AUC(0-t): 213 ng·h/mL
AUC (0-12 h), Subj 32, inf 0.556 hr, PH20 24000 U
  AUC(0-t): 238 ng·h/mL
AUC (0-12 h), Subj 51, inf 0.251 hr, PH20 6024 U
  AUC(0-t): 384 ng·h/mL
AUC (0-12 h), Subj 77, inf […], PH20 6000 U
  AUC(0-t): 516 ng·h/mL
AUC (0-24 h), Subj 1, inf 0.554 hr, PH20 23928 U
  AUC(0-t): 29.4 ng·h/mL
AUC (0-24 h), Subj 8, inf 0.531 hr, PH20 22944 U
  AUC(0-t): 29.4 ng·h/mL
AUC (0-24 h), Subj 11, inf 0.554 hr, PH20 23928 U
  AUC(0-t): 29.9 ng·h/mL
AUC (0-24 h), Subj 16, inf 0.553 hr, PH20 23904 U
  AUC(0-t): 62.9 ng·h/mL
AUC (0-24 h), Subj 18, inf […], PH20 23304 U
  AUC(0-t): 68.5 ng·h/mL
AUC (0-24 h), Subj 21, inf 0.556 hr, PH20 24000 U
  AUC(0-t): 64.7 ng·h/mL
AUC (0-24 h), Subj 25, inf 0.549 hr, PH20 23736 U
  AUC(0-t): 112 ng·h/mL
AUC (0-24 h), Subj 26, inf […], PH20 23088 U
  AUC(0-t): 147 ng·h/mL
AUC (0-24 h), Subj 31, inf 0.554 hr, PH20 23952 U
  AUC(0-t): 228 ng·h/mL
AUC (0-24 h), Subj 32, inf 0.556 hr, PH20 24000 U
  AUC(0-t): 257 ng·h/mL
AUC (0-24 h), Subj 51, inf 0.251 hr, PH20 6024 U
  AUC(0-t): 430 ng·h/mL
AUC (0-24 h), Subj 77, inf […], PH20 6000 U
  AUC(0-t): 566 ng·h/mL
AUC (0-48 h), Subj 1, inf 0.554 hr, PH20 23928 U
  AUC(0-t): 29.4 ng·h/mL
AUC (0-48 h), Subj 8, inf 0.531 hr, PH20 22944 U
  AUC(0-t): 29.4 ng·h/mL
AUC (0-48 h), Subj 11, inf 0.554 hr, PH20 23928 U
  AUC(0-t): 29.9 ng·h/mL
AUC (0-48 h), Subj 16, inf 0.553 hr, PH20 23904 U
  AUC(0-t): 64.2 ng·h/mL
